Results taken from US12630538B2, “Anti-viral compounds” (Aligos Therapeutics, Inc., priority 2022, dated 2026).

Assays:
SARS-CoV-2 = conditions: cited from earlier work
3CLpro = 3CLpro (Severe acute respiratory syndrome coronavirus 2, UniProt P0DTD1); conditions: cited from earlier work
SARS-Cov-2 3CLpro = target: T1, SARS-Cov-2 3CLpro (Severe acute respiratory syndrome coronavirus 2, UniProt P0DTD1); test: SARS-Cov-2 3CLpro and HRV3C duplex assay (SAMDI-MS): 3CLpro; format: biochemical; conditions: 30 mins preincubation
T1 construct: 3CLpro and HRV3C was added using a Multidrop Combi

HRV3C = target: T2, HRV3C (Human rhinovirus 14, UniProt P03303); test: SARS-Cov-2 3CLpro and HRV3C duplex assay (SAMDI-MS): HRV3C; format: biochemical; conditions: 30 mins preincubation, read-out: HRV (IC50)
T2 construct: 3CLpro and HRV3C was added using a Multidrop Combi
T2 sequence (P03303 1538-1719): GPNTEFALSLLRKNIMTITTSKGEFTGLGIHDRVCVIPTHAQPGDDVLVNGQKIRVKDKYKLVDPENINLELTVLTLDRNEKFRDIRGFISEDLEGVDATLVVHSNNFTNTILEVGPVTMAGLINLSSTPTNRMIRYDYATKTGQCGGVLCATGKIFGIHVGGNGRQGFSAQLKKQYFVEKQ

[1] = test system: human beta-coronavirus OC43; test: OC43 coronavirus antiviral assay in HeLa cells; format: cell-based; conditions: Betacoronavirus 1, 144 h, 6 days at 33° C., viral cytopathic effect, cell-titer-glo
Protocol: (§1) The human beta-coronavirus OC43 was purchased from ATCC (Manassas, VA) and propagated using HCT-8 human colorectal epithelial cells (ATCC). HeLa human cervical epithelial cells (ATCC) were used as susceptible host cell lines and were cultured using EMEM media, supplemented with 10% fetal bovine serum (FBS), 1% (v/v) penicillin/streptomycin (P/S), 1% (v/v) HEPES and 1% (v/v) cellgro Glutagro™ supplement (all Corning, Manassas, VA) at 37° C. For the OC43 antiviral assay, 1.5×10^4 HeLa cells per well were plated in 100 μL complete media in white 96-well plates with clear bottoms at 37° C. for up to 24 h to facilitate attachment and allow cells to recover from seeding stresses. Next day, the cell culture medium was removed. […] 100 μL of OC43 virus stock was diluted to a concentration known to produce optimal cytopathic effect, inducing 80-90% reduction in cell viability. 96-well plates were incubated for 6 (HeLa) days at 33° C.; each plate contains uninfected control wells as well as virus-infected wells that were not treated with compound. Cytotoxicity plates without the addition of OC43 virus were carried out in parallel. At the end of the incubation period, 100 μL cell culture supernatant was replaced with 100 μL cell-titer-glo reagent (Promega, Madison, WI) and incubated for at least 10 min at rt prior to measuring luminescence. Luminescence was measured on a Perkin Elmer (Waltham, MA) Envision plate reader. Antiviral % inhibition was calculated as follows: [(Compound treated cells infected sample)−(no compound infected control)]/[(Uninfected control)−(no compound infected control)]*100; Using GraphPad (San Diego, CA) prism software version 8.3.1, the antiviral dose-response plot was generated as a sigmoidal fit, log(inhibitor) vs response-variable slope (four parameters) model and the EC50 was calculated which is the predicted compound concentration corresponding to a 50% inhibition of the viral cytopathic effect.

[2] = Cytotoxicity in HeLa cells without OC43 virus; format: cell-based; conditions: human, cell-titer-glo
Protocol: as §1

[3] = test system: SARS-CoV-2 B.1.1.7 lineage; test: microbe, parasite or virus in culture; format: cell-based; conditions: Severe acute respiratory syndrome coronavirus 2, 96 h; read-out: A549-dual_ACE2_TMPRSS2 (EC50)
human cathepsin L = target: T3, human cathepsin L (Homo sapiens, UniProt P07711); test: Cathepsin L assay; format: biochemical; conditions: 10 pM human cathepsin L, substrate Z-FR-AMC 2 μM
T3 construct: purchased R&D Systems
T3 sequence (P07711 114-333): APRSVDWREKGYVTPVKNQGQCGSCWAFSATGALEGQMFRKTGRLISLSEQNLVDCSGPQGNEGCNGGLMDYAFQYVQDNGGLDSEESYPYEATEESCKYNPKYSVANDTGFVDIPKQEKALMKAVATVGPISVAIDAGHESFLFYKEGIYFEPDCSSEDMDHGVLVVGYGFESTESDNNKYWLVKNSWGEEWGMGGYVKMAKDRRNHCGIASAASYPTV
Protocol: For the cathepsin L assay, 10 pM of human cathepsin L (R&D Systems; Minneapolis, MN) was preincubated for 30 mins with test compounds. Reactions were initiated by the addition of a peptide substrate Z-FR-AMC (final concentration 2 μM, Anaspec; Fremont, CA). Fluorescence was measured at 2-minute intervals for 30 mins using a 355/460 excitation/emission filter module on an Envision plate reader (Perkin Elmer; Waltham, MA). The IC50 values were calculated for each assay by fitting the curves using a four-parameter equation in GraphPad Prism.

in vitro = conditions: human, A549-dual ACE2 TMPRSS2 cells without virus

Compound	antiviral effect when TMPRSS2 was expressed (SARS-CoV-2; A549-ACE2 expressing TMPRSS2)	inhibition of SARS-CoV-2 (SARS-CoV-2; VeroE6, A549-ACE2 and/or HeLa-ACE2)	inhibitory effect on the 3CLpro (3CLpro)	IC50 (SARS-Cov-2 3CLpro) [nM]	IC50 (HRV3C) [nM]	EC50 [1] [nM]	CC50 at 6 days [2] [nM]	EC50 [3] [nM]	IC50 (human cathepsin L) [nM]	CC50 (in vitro) [nM]
CN1CCN(C(=O)N[C@@H](Cc2ccccc2)C(=O)N[C@H](/C=C/S(=O)(=O)c2ccccc2)CCc2ccccc2)CC1 [Compound K117777]	abolished	potent inhibition	lacks an inhibitory effect	–	–	–	–	–	–	–
COC(=O)N[C@H](C(=O)N1C[C@@H]2[C@H]3C[C@@H]([C@@H]2[C@H]1C(=O)N[C@H](C#N)C[C@@H]1CCNC1=O)[C@H](F)C3)C(C)(C)C [Compound 2, methyl N-[(2S)-1-[(1S,2R,3S,6R,7S,9R)-3-{[(1S)-1-cyano-2-[(3S)-2-oxopyrrolidin-3-yl]ethyl]carbamoyl}-9-fluoro-4-azatricyclo[5.2.1.0^{2,6}]decan-4-yl]-3,3-dimethyl-1-oxobutan-2-yl]carbamate]	–	–	–	< 20	> 500	< 100	> 100000	100 to 1000	≥ 10000	> 1000
COC(=O)N[C@H](C(=O)N1C[C@H]2[C@@H]([C@H]1C(=O)N[C@H](C#N)C[C@@H]1CCNC1=O)[C@H]1C=C[C@@H]2C1)C(C)(C)C [Compound 1, methyl ((S)-1-((1S,3aR,4S,7R,7aS)-1-(((S)-1-cyano-2-((S)-2-oxopyrrolidin-3-yl)ethyl)carbamoyl)-1,3,3a,4,7,7a-hexahydro-2H-4,7-methanoisoindol-2-yl)-3,3-dimethyl-1-oxobutan-2-yl)carbamate]	–	–	–	< 20	> 500	< 100	> 100000	< 100	≥ 10000	> 1000
CC(C)(C)[C@H](NC(=O)OC1CC1)C(=O)N1C[C@@H]2[C@H]3C[C@@H]([C@@H]2[C@H]1C(=O)N[C@H](C#N)C[C@@H]1CCNC1=O)[C@H](F)C3 [Compound 3, cyclopropyl ((S)-1-((1S,3aR,4S,6R,7S,7aR)-1-(((S)-1-cyano-2-((S)-2-oxopyrrolidin-3-yl)ethyl)carbamoyl)-6-fluorooctahydro-2H-4,7-methanoisoindol-2-yl)-3,3-dimethyl-1-oxobutan-2-yl)carbamate]	–	–	–	< 20	> 500	< 100	> 100000	< 100	≥ 10000	> 1000
